Measurements published in patent US11912703B2, “6-azaindole compounds” (BRISTOL-MYERS SQUIBB COMPANY, priority 2017, dated 2024).
Read-outs that look alike come from different tables or passages of the source.

What was measured:
human TLR8 = human TLR8 (Homo sapiens (Human), UniProt Q9NR97); experiment: TLR8 inhibition reporter assay (HEK-Blue SEAP);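 also: SEAP driven by IFN-β minimal promoter with five NF-κB and AP-1 sites, compounds tested 0.05 nM to 50 µM, 22 h incubation, inhibition relative to agonist plus DMSO wells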
Sequence of human TLR8 (Q9NR97 27-1041): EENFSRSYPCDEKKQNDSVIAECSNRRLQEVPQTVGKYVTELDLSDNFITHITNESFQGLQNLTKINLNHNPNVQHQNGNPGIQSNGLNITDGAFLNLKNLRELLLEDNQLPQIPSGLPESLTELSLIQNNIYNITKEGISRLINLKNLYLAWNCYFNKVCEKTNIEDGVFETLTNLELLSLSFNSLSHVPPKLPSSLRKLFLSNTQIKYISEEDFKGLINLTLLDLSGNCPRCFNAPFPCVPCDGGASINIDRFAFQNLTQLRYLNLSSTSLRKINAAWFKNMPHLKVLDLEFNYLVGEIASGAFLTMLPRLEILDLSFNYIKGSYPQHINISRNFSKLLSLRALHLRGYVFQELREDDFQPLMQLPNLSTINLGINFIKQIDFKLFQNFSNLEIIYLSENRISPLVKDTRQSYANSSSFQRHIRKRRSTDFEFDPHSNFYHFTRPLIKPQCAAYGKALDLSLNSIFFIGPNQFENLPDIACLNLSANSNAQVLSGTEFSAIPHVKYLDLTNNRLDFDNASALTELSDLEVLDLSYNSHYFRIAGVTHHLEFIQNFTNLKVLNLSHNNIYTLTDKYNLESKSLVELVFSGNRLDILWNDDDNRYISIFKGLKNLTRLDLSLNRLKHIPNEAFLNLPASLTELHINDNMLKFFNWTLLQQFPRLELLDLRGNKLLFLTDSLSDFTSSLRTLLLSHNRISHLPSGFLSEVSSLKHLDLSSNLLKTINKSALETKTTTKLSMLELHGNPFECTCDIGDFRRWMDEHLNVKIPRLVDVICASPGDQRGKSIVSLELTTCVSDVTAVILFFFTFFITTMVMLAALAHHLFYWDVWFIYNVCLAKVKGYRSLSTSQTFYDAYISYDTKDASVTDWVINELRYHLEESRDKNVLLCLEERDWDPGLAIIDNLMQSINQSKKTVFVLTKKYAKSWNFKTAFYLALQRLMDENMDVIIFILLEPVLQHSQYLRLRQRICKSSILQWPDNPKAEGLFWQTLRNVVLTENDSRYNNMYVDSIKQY

human TLR9 = human TLR9 (Homo sapiens (Human), UniProt Q9NR96); experiment: TLR9 inhibition reporter assay (HEK-Blue SEAP);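 also: SEAP driven by IFN-β minimal promoter carrying five NF-κB and AP-1 sites, 22 h at 37 °C, compounds 0.05 nM–50 µM, inhibition scaled between agonist-plus-DMSO and reference-inhibitor wells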
Sequence of human TLR9 (Q9NR96 26-1032): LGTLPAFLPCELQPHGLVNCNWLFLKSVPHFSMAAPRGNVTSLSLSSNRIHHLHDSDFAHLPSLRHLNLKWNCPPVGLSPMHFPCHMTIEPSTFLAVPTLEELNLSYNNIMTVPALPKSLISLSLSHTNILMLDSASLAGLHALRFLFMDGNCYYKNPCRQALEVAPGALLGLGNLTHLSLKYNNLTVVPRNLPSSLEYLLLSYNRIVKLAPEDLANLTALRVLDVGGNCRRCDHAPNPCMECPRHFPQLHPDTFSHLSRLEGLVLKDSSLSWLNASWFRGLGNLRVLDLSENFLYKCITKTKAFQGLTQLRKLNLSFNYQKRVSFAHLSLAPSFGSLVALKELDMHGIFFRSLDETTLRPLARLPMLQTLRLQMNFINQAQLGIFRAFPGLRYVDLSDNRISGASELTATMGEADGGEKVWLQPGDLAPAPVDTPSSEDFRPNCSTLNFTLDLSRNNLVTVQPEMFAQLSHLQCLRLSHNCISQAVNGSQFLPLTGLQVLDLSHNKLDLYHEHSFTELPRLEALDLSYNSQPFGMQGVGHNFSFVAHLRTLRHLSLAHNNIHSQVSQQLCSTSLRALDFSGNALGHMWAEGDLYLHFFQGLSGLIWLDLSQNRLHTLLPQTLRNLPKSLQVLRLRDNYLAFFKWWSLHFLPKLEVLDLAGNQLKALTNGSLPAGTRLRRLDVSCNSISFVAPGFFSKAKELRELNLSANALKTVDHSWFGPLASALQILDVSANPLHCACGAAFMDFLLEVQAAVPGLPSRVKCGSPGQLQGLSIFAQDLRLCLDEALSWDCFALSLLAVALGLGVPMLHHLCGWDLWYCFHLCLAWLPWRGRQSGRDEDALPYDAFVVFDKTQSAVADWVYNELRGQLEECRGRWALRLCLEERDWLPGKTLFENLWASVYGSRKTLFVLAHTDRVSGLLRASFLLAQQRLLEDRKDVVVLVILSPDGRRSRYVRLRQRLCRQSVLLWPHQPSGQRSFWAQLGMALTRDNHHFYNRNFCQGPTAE

human TLR7 = human TLR7 (Homo sapiens (Human), UniProt Q9NYK1); experiment: TLR7 inhibition reporter assay (HEK-Blue SEAP); type: cell-based; conditions: HEK-Blue cells overexpressing human TLR7, gardiquimod 7.5 μM stimulation
Sequence of human TLR7 (Q9NYK1 27-1049): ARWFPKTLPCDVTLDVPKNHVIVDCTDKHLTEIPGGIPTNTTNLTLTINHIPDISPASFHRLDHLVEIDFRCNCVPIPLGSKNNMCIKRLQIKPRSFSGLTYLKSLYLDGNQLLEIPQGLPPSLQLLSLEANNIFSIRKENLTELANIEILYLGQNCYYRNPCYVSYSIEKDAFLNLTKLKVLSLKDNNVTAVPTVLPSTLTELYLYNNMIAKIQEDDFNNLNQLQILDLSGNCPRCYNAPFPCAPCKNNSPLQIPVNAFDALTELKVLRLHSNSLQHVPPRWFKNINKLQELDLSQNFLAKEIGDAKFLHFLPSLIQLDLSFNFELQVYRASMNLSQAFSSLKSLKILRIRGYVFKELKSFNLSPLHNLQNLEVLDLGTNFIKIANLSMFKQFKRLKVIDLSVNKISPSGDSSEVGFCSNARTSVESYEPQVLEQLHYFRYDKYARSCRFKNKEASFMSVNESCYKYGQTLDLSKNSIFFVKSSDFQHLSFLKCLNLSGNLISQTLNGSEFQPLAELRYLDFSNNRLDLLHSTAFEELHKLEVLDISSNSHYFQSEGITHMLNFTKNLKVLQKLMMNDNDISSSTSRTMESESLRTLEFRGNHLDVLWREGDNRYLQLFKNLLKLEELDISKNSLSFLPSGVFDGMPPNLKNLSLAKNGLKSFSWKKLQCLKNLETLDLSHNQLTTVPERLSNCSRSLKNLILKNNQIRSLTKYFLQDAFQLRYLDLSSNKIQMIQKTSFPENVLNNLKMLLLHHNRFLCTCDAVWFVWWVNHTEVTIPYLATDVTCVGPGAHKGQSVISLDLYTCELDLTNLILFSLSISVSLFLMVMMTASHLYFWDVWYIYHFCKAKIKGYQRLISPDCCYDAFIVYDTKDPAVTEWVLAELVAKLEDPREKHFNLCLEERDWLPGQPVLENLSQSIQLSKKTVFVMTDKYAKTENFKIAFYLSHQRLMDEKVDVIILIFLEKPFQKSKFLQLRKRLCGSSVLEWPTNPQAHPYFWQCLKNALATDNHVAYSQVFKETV

[1] = read-out: TLR8 IC50; HEK-Blue cells overexpressing human TLR8, R848 15.9 μM stimulation, SEAP reporter
[2] = read-out: TLR9 IC50; HEK-Blue cells overexpressing human TLR9, ODN2006 5 nM stimulation, SEAP reporter
[3] = read-out: TLR8 IC50; HEK-Blue cells overexpressing human TLR8; R848 15.9 μM stimulation; SEAP reporter
[4] = read-out: TLR9 IC50; HEK-Blue cells overexpressing human TLR9; ODN2006 5 nM stimulation; SEAP reporter

SMILES | IC50 (human TLR8; [1]) [nM] | IC50 (human TLR9; [2]) [nM] | IC50 (human TLR7) [nM] | IC50 (human TLR8; [3]) [nM] | IC50 (human TLR9; [4]) [nM]
COc1cc(-c2[nH]c3cnc(N4CCC(NCC5(C)COC5)CC4)c(F)c3c2C(C)C)cn2ncnc12 [Example 67] | 11 | 5800 | 9.1 |  | 
COc1cc(-c2[nH]c3cnc(N4CCN(C(=O)CN(C)C)CC4)c(F)c3c2C(C)C)cn2ncnc12 [compound 368] | 2.3 | 5890 | 1.3 |  | 
CCN(C)C1CCN(c2ncc3[nH]c(-c4cn5ncnc5c(C)c4C)c(C(C)C)c3c2F)CC1 [Example 83] | 1.4 | 9100 | 1.3 |  | 
Cc1cc(-c2[nH]c3cnc(C4CCN(CC(=O)N(C)C)CC4)c(F)c3c2C(C)C)cc(C)n1 [Example 153] | 5.2 | 3830 | 8.8 |  | 
COCCN1CCN(c2ncc3[nH]c(-c4cc(OC)c5ncnn5c4)c(C(C)C)c3c2C)CC1 [Example 126] | 3.2 | 2530 | 8.2 |  | 
Cc1cc(-c2[nH]c3cnc(C4CCN(CC5(C)COC5)CC4)c(F)c3c2C(C)C)cc(C)n1 [Example 215] |  |  | 4.2 | 3.7 | 2000
Cc1c(-c2[nH]c3cnc(N4CCN(CC(N)=O)C[C@H]4C)c(F)c3c2C(C)C)cn2ncnc2c1C [Example 464] |  |  | 7.3 | 2.6 | 44000
COc1cc(-c2[nH]c3cnc(C4CCC(NCC(C)(C)F)CC4)c(C)c3c2C(C)C)cn2ncnc12 (stereo not drawn) [Example 271] | 4.2 | 333 | 1.6 |  | 
Cc1cc(-c2[nH]c3cnc(C4CCC(N5CCC5)CC4)c(F)c3c2C(C)C)cn2ncnc12 (stereo not drawn) [Example 109] | 1.7 | 1660 | 0.61 |  | 
Cc1c(-c2[nH]c3cnc(N4CCC(N5CC6(COC6)C5)CC4)c(F)c3c2C(C)C)cn2ncnc2c1C [Example 111] | 0.48 | 3000 | 1 |  | 
COc1cc(-c2[nH]c3cnc(C4CCN(C5CCOCC5)CC4)c(F)c3c2C(C)C)cn2ncnc12 [Example 217] |  |  | 3.4 | 4.4 | 7600
COc1cc(-c2[nH]c3cnc(N4CCN(C5COC5)C[C@H]4C)c(F)c3c2C(C)C)cn2ncnc12 [Example 440] | 62 | > 50000 | 11 |  | 
Cc1c(-c2[nH]c3cnc(N4CC5(CN(CC#N)C5)C4)c(F)c3c2C(C)C)cn2ncnc2c1C [Example 397] | 30 | 43200 | 48 |  | 
Cc1c(N2CCC(N3CCNC(=O)C3)CC2)ncc2[nH]c(-c3cc(C)c4ncnn4c3)c(C(C)C)c12 [Example 284] | 14 | 23500 | 8.3 |  | 
Cc1c(-c2[nH]c3cnc(N4CCC(NCC5(C)COC5)CC4)c(C)c3c2C(C)C)cn2ncnc2c1C [Example 54] | 0.3 | 935 | 0.9 |  | 
Cc1c(-c2[nH]c3cnc(C4CCC(NCC(C)(C)C)CC4)c(C)c3c2C(C)C)cn2ncnc2c1C (stereo not drawn) [Example 58] | 23 | 692 | 60 |  | 

SMILES | IC50 (human TLR8; [1]) [nM] | IC50 (human TLR9; [2]) [nM] | IC50 (human TLR7) [nM] | IC50 (human TLR8; [3]) [nM] | IC50 (human TLR9; [4]) [nM]
Cc1c(-c2[nH]c3cnc(C4CCC(NCC(C)(C)C)CC4)c(C)c3c2C(C)C)cn2ncnc2c1C (stereo not drawn) [Example 247] | 10 | 718 | 16 |  | 
CNC(=O)CN1CCC(c2ncc3[nH]c(-c4cc(OC)c5ncnn5c4)c(C(C)C)c3c2F)CC1 [Example 20] | 4.3 | 6550 | 2.5 |  | 
COc1cc(-c2[nH]c3cnc(N4CCN(CC5CCOCC5)CC4)c(F)c3c2C(C)C)cn2ncnc12 [Example 383] | 0.31 | 5390 | 2.7 |  | 
CNC1CCN(c2ncc3[nH]c(-c4cc(C)c5ncnn5c4)c(C(C)C)c3c2F)CC1 [Example 71] | 0.65 | 3610 | 0.41 |  | 
COc1cc(-c2[nH]c3cnc(N4CCC(NCC(C)(C)O)CC4)c(F)c3c2C(C)C)cn2ncnc12 [Example 156] | 0.26 | 6430 | 0.79 |  | 
Cc1c(-c2[nH]c3cnc(N4CCNCC4)c(F)c3c2C(C)C)cn2ncnc2c1C [Example 393] | 0.51 | 8730 | 1.4 |  | 
COc1cc(-c2[nH]c3cnc(C4CCC(N(C)C(C)C)CC4)c(F)c3c2C(C)C)cn2ncnc12 (stereo not drawn) [Example 227] |  |  | 1.9 | 2.6 | 4320
COc1cc(-c2[nH]c3cnc(C4CCC(NCC(C)(C)C)C4)cc3c2C(C)C)cn2ncnc12 (stereo not drawn) [Example 144] | 14 | 1250 | 14 |  | 
Cc1c(-c2[nH]c3cnc(C4CCC(NC5CCOCC5)CC4)c(F)c3c2C(C)C)cn2ncnc2c1C (stereo not drawn) [Example 134] | 0.27 | 1020 | 0.98 |  | 
Cc1c(-c2[nH]c3cnc(C4CCC(NCC5(C)COC5)CC4)c(C)c3c2C(C)C)cn2ncnc2c1C (stereo not drawn) [Example 204] | 3.1 | 466 | 6.6 |  | 
Cc1cc(-c2[nH]c3cnc(C4CCN(C(=O)CN(C)C)CC4)cc3c2C(C)C)cn2ncnc12 [Example 5, 2-(dimethylamino)-1-(4-(3-isopropyl-2-(8-methyl-[1,2,4]triazolo[1,5-a]pyridine-6-yl)-1H-pyrrolo[2,3-c]pyridin-5-yl)piperidin-1-yl)ethan-1-one] | 100 | 250 | 9.5 |  | 
COc1cc(-c2[nH]c3cnc(N4CCN(C5CCCOC5)CC4)c(F)c3c2C(C)C)cn2ncnc12 (single isomer, unassigned) [Example 387] | 13 | > 50000 | 33 |  | 
COc1cc(-c2[nH]c3cnc(N4CCNCC4)c(F)c3c2C(C)C)cn2ncnc12 [Example 353, 6-(4-fluoro-3-isopropyl-5-(piperazin-1-yl)-1H-pyrrolo[2,3-c]pyridin-2-yl)-8-methoxy-[1,2,4]triazolo[1,5-a]pyridine] | 1.4 | 2530 | 0.61 |  | 
COCCN1CCN(c2ncc3[nH]c(-c4cc(OC)c5ncnn5c4)c(C(C)C)c3c2F)[C@H](C)C1 [Example 444] | 6.7 | 19900 | 5 |  | 
Cc1c(-c2[nH]c3cnc(C4CCC(NC(C)C)CC4)c(C)c3c2C(C)C)cn2ncnc2c1C (stereo not drawn) [Example 61] | 35 | 346 | 28 |  | 
Cc1cc(-c2[nH]c3cnc(C4CCC(NC5(C)COC5)CC4)c(F)c3c2C(C)C)cn2ncnc12 (stereo not drawn) [Example 81] | 0.61 | 2170 | 0.15 |  | 

Further molecules by falling IC50 (human TLR7), results first:

IC50 (human TLR8; [1]) [nM] | IC50 (human TLR9; [2]) [nM] | IC50 (human TLR7) [nM] | IC50 (human TLR8; [3]) [nM] | IC50 (human TLR9; [4]) [nM] | SMILES
> 3120 | > 50000 | 1590 |  |  | CNC(=O)CN1CCN(c2cc3c(C(C)C)c(-c4cc(C)c5ncnn5c4)[nH]c3cn2)CC1 [Example 302]
19 | > 50000 | 99 |  |  | Cc1c(-c2[nH]c3cnc(N4CC5(CN(CCS(C)(=O)=O)C5)C4)c(F)c3c2C(C)C)cn2ncnc2c1C [Example 396]
4.4 | 5970 | 30 |  |  | Cc1c(-c2[nH]c3cnc(N4CC5(CN(CC(C)C)C5)C4)c(F)c3c2C(C)C)cn2ncnc2c1C [Example 402]
1.6 | 11900 | 13 |  |  | COc1cc(-c2[nH]c3cnc(N4CCN(CC(=O)N(C)C)CC4)cc3c2C(C)C)cn2ncnc12 [Example 300]
4.8 | 937 | 8.4 |  |  | Cc1c(-c2[nH]c3cnc(N4CC5(C4)CN(C4CCN(C(C)C)CC4)C5)c(F)c3c2C(C)C)cn2ncnc2c1C [Example 406]
4.6 | 1800 | 6.2 |  |  | Cc1cc(-c2[nH]c3cnc(C4CCC(NCC(C)(C)O)CC4)c(F)c3c2C(C)C)cn2ncnc12 (stereo not drawn) [Example 164]
 |  | 5.7 | 1.6 | 16300 | Cc1c(-c2[nH]c3cnc(N4CCN(C5CCOCC5)C[C@H]4C)c(F)c3c2C(C)C)cn2ncnc2c1C [Example 456]
 |  | 5.3 | 0.92 | 46600 | COCCN1CCN(c2ncc3[nH]c(-c4cn5ncnc5c(C)c4C)c(C(C)C)c3c2F)[C@H](C)C1 [Example 472]
1.4 | 42100 | 4.1 |  |  | COc1cc(-c2[nH]c3cnc(N4CCN(CC5(C)COC5)CC4)c(F)c3c2C(C)C)cn2ncnc12 [Example 385]
0.32 | 8180 | 3.5 |  |  | Cc1c(-c2[nH]c3cnc(N4CCN(C5CCOCC5)CC4)c(F)c3c2C(C)C)cn2ncnc2c1C [Example 431]
0.32 | 6910 | 3 |  |  | CCN1CCN(c2ncc3[nH]c(-c4cn5ncnc5c(C)c4C)c(C(C)C)c3c2F)CC1 [Example 433]
2 | 1210 | 0.83 |  |  | CCN(C)C1CCC(c2ncc3[nH]c(-c4cc(C)c5ncnn5c4)c(C(C)C)c3c2F)CC1 (stereo not drawn) [Example 199]
0.58 | 1100 | 0.79 |  |  | COc1cc(-c2[nH]c3cnc(N4CCC(N5CCOCC5)CC4)c(C)c3c2C(C)C)cn2ncnc12 [Example 278]
 |  | 0.74 | 0.35 | 4540 | Cc1cc(-c2[nH]c3cnc(N4CCC(NC5CCOCC5)CC4)c(F)c3c2C(C)C)cn2ncnc12 [Example 220]
3.8 | 959 | 0.58 |  |  | COc1cc(-c2[nH]c3cnc(C4CCC(N(C)C(C)C)CC4)c(F)c3c2C(C)C)cn2ncnc12 (stereo not drawn) [Example 76]
0.49 | 14500 | 0.5 |  |  | Cc1cc(-c2[nH]c3cnc(N4CCC(NC5COC5)CC4)c(F)c3c2C(C)C)cn2ncnc12 [Example 255]
